Assay results taken from patent US11963972B2, “Antiviral agents and nucleoside analogs for treatment of Zika virus” (priority 2016, dated 2024).
Like-named read-outs stand apart in the source and are kept apart here.

How the values were obtained:
[1] = system: ZIKV Puerto Rico strain (PRVABC59); assay: ZIKV CPE MTS assay in Vero cells; type: cell-based, Zika virus; details: Vero cells
Procedure: (§1) […] Cell cytopathic effect (CPE) MTS assay (CellTiter 96@k) AQueous One Solution Cell Proliferation Promega kit, Promega) was measured four (Vero) or five (U251 or Huh7) days after compound addition to determine the levels of replication inhibition.

[2] = system: ZIKV Puerto Rico strain (PRVABC59); assay: ZIKV CPE MTS assay in Huh7 cells; type: cell-based, Zika virus; details: Huh7 cells
Procedure: as §1

[3] = system: ZIKV Puerto Rico strain (PRVABC59); assay: ZIKV CPE MTS assay in human neuroblastoma (U251) cells; type: cell-based, Zika virus; details: U251 cells
Procedure: as §1

ZIKV PRVABC59 = assay: Combination of SSZ with control 1, ZIKV CPE assay in Vero cells; type: cell-based, Zika virus; details: Vero cells pretreated 18-20 h, MOI 0.01 PRVABC59, read-out: EC50, drug alone, ZIKV CPE assay
Procedure: Vero cells were pretreated for 18-20 h with SSZ (fixed concentrations of 300, 200 or 100 μM) plus control 1 (10, 5, 2.5 and 0.25 μM) prior to infection with MOI 0.01 PRVABC59 (drugs were replenished right after infection).
Drug-drug interactions were analyzed by using CalcuSyn (Biosoft, Ferguson, MO) computer software: 300, 200, and 100 μM SSZ in the presence of 10, 5, 2.5, and 0.25 μM of control 1 was evaluated versus each drug alone for each drug concentration. The interpretation of Combination Index (CI) values are as follows: Antagonism: CI value>1.0, Additive effect: CI value=1.0; Synergism: CI value=<1.0.

DENV-2 replicon = DENV-2 replicon model; type: cell-based; details: Dengue virus, DENV2
DENV-2 [4] = assay: DENV-2 Huh-7 infectious assay; type: cell-based; details: Dengue virus, DENV2, Huh-7
DENV-2 [5] = assay: DENV-2 VERO infectious assay; type: cell-based, Dengue virus
WNV replicon = WNV replicon model; type: cell-based; details: West Nile virus
Norovirus = Norovirus activity test; type: cell-based
HCV = HCV activity test; type: cell-based
[6] = system: baby hamster kidney (BHK) cells
[7] = human, in vivo; cited from earlier work

Work on `C[C@@]1(O)[C@H](O)[C@@H](CO)O[C@H]1n1cc(F)c2cnc(N)nc21` [Control 1, beta-D-2′-C—Me-2-amino-7-fluoro-7-deazapurine ribose, reference compound] yielded an EC50 ([1]; no pretreat, read-out: ZIKV-CPE MTS Assay EC50, μM, Vero, No pretreat) of 0.8 µM, an EC50 ([1]; pretreated 18-20 h before infection, read-out: ZIKV-CPE MTS Assay EC50, μM, Vero, Pretreat) of 0.4 µM and an EC50 ([2]; no pretreat, read-out: ZIKV-CPE MTS Assay EC50, μM, Huh7, No pretreat) of 0.4 µM. For the same compound, the EC50 ([2]; pretreated 18-20 h before infection, read-out: ZIKV-CPE MTS Assay EC50, μM, Huh7, Pretreat) was 0.5 µM, the EC50 ([3]; no pretreat, read-out: ZIKV-CPE MTS Assay EC50, μM, U251, No pretreat) was 3.5 µM and the EC50 ([3]; pretreated 18-20 h before infection, read-out: ZIKV-CPE MTS Assay EC50, μM, U251, Pretreat) was 4 µM. The EC50 (ZIKV PRVABC59) was 5.4 µM.

For `O=C(O)c1cc(/N=N/c2ccc(S(=O)(=O)Nc3ccccn3)cc2)ccc1O` [Sulfasalazine], the EC50 ([1]; Zika virus, no pretreat, read-out: ZIKV-CPE MTS Assay EC50, μM, Vero, No pretreat) was 181 µM, the EC50 ([1]; Zika virus, pretreated 18-20 h before infection, read-out: ZIKV-CPE MTS Assay EC50, μM, Vero, Pretreat) was 273 µM and the EC50 ([2]; Zika virus, Huh-7, no pretreat, read-out: ZIKV-CPE MTS Assay EC50, μM, Huh7, No pretreat) was 255 µM. It also gave an EC50 ([2]; Zika virus, Huh-7, pretreated 18-20 h before infection, read-out: ZIKV-CPE MTS Assay EC50, μM, Huh7, Pretreat) of 341 µM, an EC50 ([3]; Zika virus, U-251, no pretreat, read-out: ZIKV-CPE MTS Assay EC50, μM, U251, No pretreat) of 385 µM and an EC50 ([3]; Zika virus, U-251, pretreated 18-20 h before infection, read-out: ZIKV-CPE MTS Assay EC50, μM, U251, Pretreat) of 318 µM. For the same compound, the EC50 (DENV-2 replicon) was 8.3 µM, the inhibition at 30 µM (DENV-2 replicon; at 30 μM) was 77.4% and the EC50 (DENV-2 [4]) was 22.2 µM. For the same compound, the EC90 (DENV-2 [4]) was 61.9 µM, the EC50 (DENV-2 [5]; Dengue virus, DENV2, Vero) was over 100 µM and the “% inhibition, DENV-2 in Vero cells” value (DENV-2 [5]; Vero, concentration not given) was under 1%. The EC50 (WNV replicon) was 9.9 µM, the EC90 (WNV replicon) was 78.3 µM and the inhibition at 30 µM (WNV replicon; at 30 μM) was 78.5%. For the same compound, the “effect on Norovirus (no effect observed up to)” value (Norovirus) was over 100 µM, the “effect on HCV (no effect observed up to)” value (HCV) was over 100 µM and the EC50 (ZIKV PRVABC59; Zika virus) was 210 µM. The “Toxicity in baby hamster kidney (BHK) cells” value [6] was over 100 µM, the “toxicity in culture (no toxicity up to)” value [6] was over 100 µM and the “doses taken without side effects” value [7] was “up to 4 g/day”. For the same compound, the safety in pregnancy [7] was “safe for a person to take while pregnant”.
